According to PMC3087488 (Journal of Oncology, 2011):

How the values were obtained:
Kit = system: Kit; set-up: method as in PMID 16951187; conditions: cited from earlier work
cytochrome P 450 3A = conditions: cited from earlier work
VEGFR1 = system: VEGFR1; set-up: method as in PMID 16951187; conditions: cited from earlier work
[1] = motesanib plasma pharmacokinetics in patients; assay type: in vivo, human
Experimental: Plasma motesanib and gemcitabine concentrations were analyzed using a validated liquid chromatography/tandem mass spectrometry (LC-MS/MS) method, respectively. […] All pharmacokinetic parameter estimates were calculated using standard noncompartmental methods and WinNonlin Professional software on […] (Version 5.1.1, Pharsight Corporation, Mountain View, Calif, USA).

PDGFR = system: PDGFR; set-up: method as in PMID 16951187; conditions: cited from earlier work
advanced solid tumors = test: tumor response per modified RECIST; conditions: for Confirmed complete response / Confirmed objective response, % (95% CI) / Confirmed partial response / Durable stable disease (≥24 weeks) / Progressive disease / Stable disease / Unevaluable / Clinical benefit rate (CR + PR + durable SD): gemcitabine/cisplatin
[2] = system: human umbilical vein endothelial cell (HUVEC) proliferation; set-up: method as in PMID 16951187; conditions: cited from earlier work
[3] = phase 1b dose escalation: dose-limiting toxicities and MTD; conditions: in combination with panitumumab and gemcitabine/cisplatin; patients with advanced solid tumors
[4] = motesanib 50 mg QD (n = 8) + panitumumab
[5] = motesanib 75 mg BID (n = 2) + panitumumab
[6] = motesanib 75 mg QD (n = 6) + panitumumab
[7] = motesanib 100 mg QD (n = 6) + panitumumab
[8] = motesanib 125 mg QD (n = 11) + panitumumab

In the case of `CC1(C)CNc2cc(NC(=O)c3cccnc3NCc3ccncc3)ccc21` [motesanib], the IC50 (Kit) is listed as […], the route of metabolism (cytochrome P 450 3A) is listed as “primarily metabolized by glucuronidation and cytochrome P 450 3A-mediated oxidation” and the IC50 (VEGFR1) is listed as […]. It also gave a concentration at 24 h ([1]; human, in vivo, mean daily motesanib C 24 (above IC50 for HUVEC proliferation)) of over 4 ng/mL, a concentration at 24 h ([1]; human, in vivo, mean daily motesanib C 24 (higher than IC90 for HUVEC proliferation)) of over 28 ng/mL and a half-life ([1]; human, in vivo, mean estimated terminal elimination half-life (t 1/2,z)) of 5.21 to 6.72 h. For the same molecule, the Tmax ([1]; human, in vivo, po) was about 1 h, the “C max, mean (SD)” value ([1]; motesanib 75 mg QD (n = 3 − 6), single dose, + panitumumab, gemcitabine/cisplatin) was 186 (92) ng/mL and the IC50 (PDGFR) was 84 nM. The “patients with durable (≥24 weeks) stable disease” value (advanced solid tumors; all 41 patients) was “six”, the “patients with confirmed partial response” value (advanced solid tumors; all 41 patients incl. 0-mg cohort) was 9 patients and the confirmed objective response (advanced solid tumors; all 41 patients incl. 0-mg cohort, 10 patients, 95% CI, 12.4–40.3) was 24%. For the same molecule, the “patients with best response of stable disease” value (advanced solid tumors; all 41 patients, twenty patients) was 49%, the median progression-free survival (advanced solid tumors; all patients) was 197 days and the “Kaplan-Meier estimate of median progression-free survival” value (advanced solid tumors; all patients, 95% CI: 2.8—not estimable) was 28 weeks. The “patients with complete response as best objective response” value (advanced solid tumors; all patients, breast cancer) was “One”, the Confirmed complete response (advanced solid tumors; [4]) was 0 (0) n (%) and the “Confirmed objective response, % (95% CI)” value (advanced solid tumors; [4]) was 0 (0–36.9) %. For the same molecule, the Confirmed partial response (advanced solid tumors; [4]) was 0 (0) n (%), the “Durable stable disease (≥24 weeks)” value (advanced solid tumors; [4]) was 0 (0) n (%) and the Progressive disease (advanced solid tumors; [4]) was 2 (25) n (%). The Stable disease (advanced solid tumors; [4]) was 5 (63) n (%), the Unevaluable (advanced solid tumors; [4]) was 0 (0) n (%) and the “Clinical benefit rate (CR + PR + durable SD)” value (advanced solid tumors; [5]) was 2 (100) n (%). For the same molecule, the Confirmed complete response (advanced solid tumors; [5]) was 0 (0) n (%), the “Confirmed objective response, % (95% CI)” value (advanced solid tumors; [5]) was 50 (1.3–98.7) % and the Confirmed partial response (advanced solid tumors; [5]) was 1 (50) n (%). For the same molecule, the “Durable stable disease (≥24 weeks)” value (advanced solid tumors; [5]) was 0 (0) n (%), the Progressive disease (advanced solid tumors; [5]) was 0 (0) n (%) and the Stable disease (advanced solid tumors; [5]) was 1 (50) n (%). For the same molecule, the Unevaluable (advanced solid tumors; [5]) was 0 (0) n (%), the Confirmed complete response (advanced solid tumors; [6]) was 0 (0) n (%) and the “Confirmed objective response, % (95% CI)” value (advanced solid tumors; [6]) was 17 (0.4–64.1) %. For the same molecule, the Confirmed partial response (advanced solid tumors; [6]) was 1 (17) n (%), the “Durable stable disease (≥24 weeks)” value (advanced solid tumors; [6]) was 3 (50) n (%) and the Progressive disease (advanced solid tumors; [6]) was 0 (0) n (%). The Stable disease (advanced solid tumors; [6]) was 4 (67) n (%), the Unevaluable (advanced solid tumors; [6]) was 1 (17) n (%) and the “Clinical benefit rate (CR + PR + durable SD)” value (advanced solid tumors; [7]) was 6 (100) n (%). The Confirmed partial response (advanced solid tumors; [7]) was 3 (50) n (%), the “Durable stable disease (≥24 weeks)” value (advanced solid tumors; [7]) was 1 (17) n (%) and the Progressive disease (advanced solid tumors; [7]) was 0 (0) n (%). The Stable disease (advanced solid tumors; [7]) was 2 (33) n (%), the Unevaluable (advanced solid tumors; [7]) was 0 (0) n (%) and the “Clinical benefit rate (CR + PR + durable SD)” value (advanced solid tumors; [8]) was 6 (55) n (%). The Confirmed complete response (advanced solid tumors; [8]) was 0 (0) n (%), the “Confirmed objective response, % (95% CI)” value (advanced solid tumors; [8]) was 18 (2.3–51.8) % and the Confirmed partial response (advanced solid tumors; [8]) was 2 (18) n (%). The “Durable stable disease (≥24 weeks)” value (advanced solid tumors; [8]) was 1 (9) n (%), the Progressive disease (advanced solid tumors; [8]) was 1 (9) n (%) and the Stable disease (advanced solid tumors; [8]) was 4 (36) n (%). The Unevaluable (advanced solid tumors; [8]) was 1 (9) n (%), the “patients with complete response, partial response, or stable disease as best response” value (advanced solid tumors; of the 41 patients enrolled) was 30 patients and the “90% inhibitory concentration (IC90) for HUVEC proliferation” value [2] was 0.028 µg/mL. The “IC50 for HUVEC proliferation” value [2] was 0.004 µg/mL and the “maximum tolerated dose (MTD) of motesanib” value [3] was 100 mg QD.
